These results are taken from patent US20240376075A1, “POLYMORPHIC FORMS OF AURORA A SELECTIVE INHIBITORS AND USES THEREOF” (Jacobio Pharmaceuticals Co., Ltd., priority 2021, published 2024).

As a reminder, the AUC(0-t) is exposure summed from dosing to a finite time, without extrapolation to infinity. Low values mean low exposure, high ones high exposure. One may read the Cmax as the maximum level reached in the sampled fluid or tissue. For orientation: half-life means the time in which the quantity being followed falls by half. Higher therefore signals slow loss.

SMILES strings stand for the structures.

Series [1] can be described thus: PK in dog, oral suspension. In kind it is in vivo, Beagle dogs. To be noted: for AUC(0-t) / Cmax / half-life: dog, plasma, Beagle dogs, suspension in 0.5% CMC-Na. The protocol:
Then plasma samples were collected at 0 hour (pre-dose), 0.083, 0.25, 0.5, 1, 2, 4, 6, 8, 24 hours post-dose. Plasma drug concentration was detected by LC-MS/MS. Pharmacokinetic parameters were calculated using WinNonlin's software with non-compartmental model.

Series [2] is described as follows: Crystal form stability experiment (XRPD). The conditions noted are these: for Results (XRPD): uncapped or sealed, protected from light, 7 days and 14 days. In kind it is physicochemical. The protocol:
1. […] The crystal forms stability test was carried out under the specified experimental conditions.

The nature of series [3]: PK in rat, oral suspension. In kind it is in vivo. To be noted: Sprague-Dawley, plasma, SD rats, PO: 5 mg/kg, suspension in 0.5% CMC-Na. The protocol:
The plasma samples were collected at 0 hour (pre-dose), 0.083, 0.25, 0.5, 1, 2, 4, 6, 8, 24 hours post-dose. Plasma drug concentration was detected by LC-MS/MS. Pharmacokinetic parameters were calculated using WinNonlin's software with non-compartmental model.

`Cc1cc(Nc2nc(C[C@@]3(C(=O)[O-])CCN(Cc4cccc(Cl)c4F)[C@H](C)C3)cc(C)c2F)n[nH]1.[K+]` [polymorph form I, potassium (2R,4R)-1-(3-chloro-2-fluorobenzyl)-4-((5-fluoro-4-methyl-6-((3-methyl-1H-pyrazol-5-yl)amino)pyridin-2-yl)methyl)-2-methylpiperidine-4-carboxylate monohydrate]: the AUC(0-t) was determined as 45500 ng·h/mL in series [1] (PO: 3 mg/kg), 165000 ng·h/mL in series [1] (PO: 10 mg/kg) and 93300 ng·h/mL in series [3]. In addition, the Cmax in series [1] (PO: 3 mg/kg) worked out at 14400 ng/mL; in series [1] (PO: 10 mg/kg), 45000 ng/mL; in series [3] it was 12400 ng/mL. Besides, the results for the half-life in series [1] (PO: 3 mg/kg), in series [1] (PO: 10 mg/kg) and in series [3] were 8.12 h, 4.51 h and 4.11 h, respectively. The “absorption and exposure in vivo” value in series [1] (oral, summary of Examples 6 and 7 (rat and dog)) was “great absorption and a high exposure”. The “Results (XRPD)” value in series [2] (Accelerated (40° C. ± 2° C., 75% RH ± 10% RH)) is “Polymorph form I”; in series [2] (Long-time (25° C. ± 2° C., 65% RH ± 10% RH)), “Polymorph form I”. The “relative stability of the forms” value in series [2] (at room temperature) was “most stable”. For the same molecule, the crystal form stability entry in series [2] (long-term and accelerated conditions for 14 days) is recorded as “remained unchanged”.
Consider `Cc1cc(Nc2nc(C[C@@]3(C(=O)[O-])CCN(Cc4cccc(Cl)c4F)[C@H](C)C3)cc(C)c2F)n[nH]1.[K+]` [amorphous, potassium (2R,4R)-1-(3-chloro-2-fluorobenzyl)-4-((5-fluoro-4-methyl-6-((5-methyl-1H-pyrazol-3-yl)amino)pyridin-2-yl)methyl)-2-methylpiperidine-4-carboxylate], for which, in series [2] (sealed for more than two weeks), the solid form conversion result is “transformed to Polymorph form I”.
On to `Cc1cc(Nc2nc(C[C@@]3(C(=O)[O-])CCN(Cc4cccc(Cl)c4F)[C@H](C)C3)cc(C)c2F)n[nH]1.[K+]` [Polymorph form II, potassium (2R,4R)-1-(3-chloro-2-fluorobenzyl)-4-((5-fluoro-4-methyl-6-((5-methyl-1H-pyrazol-3-yl)amino)pyridin-2-yl)methyl)-2-methylpiperidine-4-carboxylate], for which the solid form conversion entry in series [2] (after drying under 40° C. overnight) was “converted to polymorph form I”.
Consider `Cc1cc(Nc2nc(C[C@@]3(C(=O)[O-])CCN(Cc4cccc(Cl)c4F)[C@H](C)C3)cc(C)c2F)n[nH]1.[K+]` [Polymorph form III, potassium (2R,4R)-1-(3-chloro-2-fluorobenzyl)-4-((5-fluoro-4-methyl-6-((5-methyl-1H-pyrazol-3-yl)amino)pyridin-2-yl)methyl)-2-methylpiperidine-4-carboxylate], for which the solid form conversion result in series [2] (when cooled back to room temperature) is listed as “converted to polymorph form I”.
